Legend:
[1] = biological target: Cbl-b (36-427 aa truncated form, N-terminus Avi-tag) (Homo sapiens (Human), UniProt Q13191); assay: Cbl-b binding: TR-FRET displacement of BODIPY-FL probe
Summary of the method: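 IC50 from loss of terbium–BODIPY-FL TR-FRET signal as compounds compete off a fluorescent Cbl-b inhibitor probe (1 uM) for 1 h at RT. Protein: N-Avi-tagged human Cbl-b 36-427 on streptavidin-terbium, 20 mM HEPES pH 7.5 buffer.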

Human primary T cells [2] = assay: T cell activation: secreted IL-2; assay type: cell-based; conditions: 48 hours, fold over background normalized to Compound 141A; for IL-2 1 nM: 1 nM compound; for IL-2 10 nM: 10 nM compound; for IL-2 100 nM: 100 nM compound
Summary of the method: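 IL-2 values are fold over anti-CD3/CD28 background, normalized to a reference compound and sorted into ranges. They come from supernatants of human pan-T cells captured on anti-CD3-coated plates and exposed 48 h, 37° C., to duplicate compound dilutions, measured with cytometric beads.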

Human primary T cells [3] = assay: T cell activation: secreted IFN-y; assay type: cell-based; conditions: 48 hours, fold over background normalized to Compound 141A; for IFN-y 1 nM: 1 nM compound; for IFN-y 10 nM: 10 nM compound; for IFN-y 100 nM: 100 nM compound
Summary of the method: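 Values are binned ranges (A–D) of fold increase over anti-CD3/CD28 background, normalized to a reference compound, for IFN-γ in supernatants measured by bead array. Pan-T cells from donor PBMC or LeukoPaks were stimulated on anti-CD3-coated wells (10 μg/mL coating) in serum-free medium with compound for 48 h at 37 °C.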

Human primary T cells [4] = assay: T cell activation: CD69 surface expression by flow cytometry; assay type: cell-based; conditions: fold over anti-CD3 stimulated background normalized to Compound 141A; for CD69 1 nM: 1 nM compound; for CD69 10 nM: 10 nM compound; for CD69 100 nM: 100 nM compound
Summary of the method: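 Read-out is flow-cytometric CD69 surface staining, expressed as fold increase over anti-CD3-stimulated background and normalized to Compound 141A. Human pan T cells from PBMC or LeukoPaks were plated on OKT3-coated wells in serum-free XVivo-15. Compound dilutions were added for 48 h at 37° C, 5% CO2.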

[5] = system: human peripheral blood pan-T cells; assay: T cell activation by small molecule inhibitors of Cbl-b (biomarker flow cytometry); assay type: cell-based; conditions: 10 μM, 48 hours
Description: Cryopreserved human peripheral blood pan-T cells (StemCell, 70024) were defrosted and resuspended in Immunocult-XF T cell Expansion Medium (StemCell, 10981). Cells were plated at 8×10^5 cells per well in 24 well plates, in presence or absence of pre-coated anti-CD3 (OKT3) antibody (ThermoFisher, 16-0037-85). Pre-coating of plates was done by diluting anti-CD3 antibody to 10 μg/mL in PBS and adding 1 ml to each well. Plates were incubated at 4° C. overnight or at 37° C. for 2 hours and washed once with PBS before use. Dilution of each small molecule cbl-b inhibitor was added. Untreated cell was used as a control. Plates were incubated for 48 hours at 37° C. with 5% CO2. T cells were fixed and permeabilized with Intracellular Fixation & Permeabilization Buffer Set (ThermoFisher, 88-8824), and continuously stained with one of PE-conjugated antibody listed in Table 10. Stained T cells were then analyzed with by flow cytometry (ThermoFisher Attune NxT). The percent of positive cells of each treated group was normalized with untreated cell and sorted into bins as follows: fold over background values from 10 to 14.9: range “A;” values from 5.0 to 9.9: range “B;” values from 2.0 to 4.9: range “C;” and values from 0.1 to 1.9: range “D.” Only for Notch1, geometric mean was used.

[6] = +CD3 (pre-coated anti-CD3 OKT3)

Sequence of Cbl-b (36-427 aa truncated form, N-terminus Avi-tag) (Q13191 36-427): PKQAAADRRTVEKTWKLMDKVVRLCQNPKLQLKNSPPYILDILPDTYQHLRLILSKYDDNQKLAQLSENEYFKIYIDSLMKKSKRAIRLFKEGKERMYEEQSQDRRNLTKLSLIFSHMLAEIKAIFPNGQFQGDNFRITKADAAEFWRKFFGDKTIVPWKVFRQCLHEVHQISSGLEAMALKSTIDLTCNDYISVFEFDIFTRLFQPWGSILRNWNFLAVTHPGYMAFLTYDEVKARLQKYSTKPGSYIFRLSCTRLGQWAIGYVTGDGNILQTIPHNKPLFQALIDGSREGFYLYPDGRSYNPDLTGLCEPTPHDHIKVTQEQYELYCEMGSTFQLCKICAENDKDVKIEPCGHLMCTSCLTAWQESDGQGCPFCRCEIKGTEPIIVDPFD

SMILES	IC50 [1] [nM]	IL-2 1 nM (Human primary T cells [2])	IL-2 10 nM (Human primary T cells [2])	IL-2 100 nM (Human primary T cells [2])	IFN-y 1 nM (Human primary T cells [3])	IFN-y 10 nM (Human primary T cells [3])	IFN-y 100 nM (Human primary T cells [3])	CD69 1 nM (Human primary T cells [4])	CD69 10 nM (Human primary T cells [4])	CD69 100 nM (Human primary T cells [4])	further results
C[C@H]1CCCN(Cc2cc3c(c(C(F)(F)F)c2)CN(c2cc(C4(Cc5nncn5C)COC4)cc(NC4CC(C#N)C4)n2)C3=O)C1.O=C(O)C(F)(F)F (stereo partly drawn) [Compound 190, (S)-3-((4-(3-((4-methyl-4H-1,2,4-triazol-3-yl)methyl)oxetan-3-yl)-6-(6-((3-methylpiperidin-1-yl)methyl)-1-oxo-4-(trifluoromethyl)isoindolin-2-yl)pyridin-2-yl)amino)cyclobutane-1-carbonitrile; trifluoroacetic acid]	5.01 to 20	C (values between 0.10 and 0.30: range “C”)	C (values between 0.10 and 0.30: range “C”)	C (values between 0.10 and 0.30: range “C”)	C (values between 0.10 and 0.30: range “C”)	B (values between 0.31 and 1.00: range “B;”)	B (values between 0.31 and 1.00: range “B;”)	C (values between 0.30 and 0.60: range “C”)	C (values between 0.30 and 0.60: range “C”)	B (values between 0.61 and 0.80: range “B;”)	
CC1CC(c2cc(NCCC#N)nc(N3Cc4c(cc(CN5CCC[C@H](C)C5)cc4C(F)(F)F)C3=O)c2)(c2nncn2C)C1 (stereo partly drawn) [Compound 192, 3-{[6-(6-{[(3S)-3-methylpiperidin-1-yl]methyl}-1-oxo-4-(trifluoromethyl)-3H-isoindol-2-yl)-4-[(1r,3s)-3-methyl-1-(4-methyl-1,2,4-triazol-3-yl)cyclobutyl]pyridin-2-yl]amino}propanenitrile]		D (values between 0.01 and 0.09: range “D.”)	B (values between 0.31 and 0.79: range “B”)	X (fold over background values between 1.41 and 1.8: range “X”)	B (values between 0.31 and 1.00: range “B;”)	B (values between 0.31 and 1.00: range “B;”)		C (values between 0.30 and 0.60: range “C”)	A (values between 0.81 and 1.10: range “A”)	X (fold over background values between 1.11 and 1.6: range “X”)	Notch 1, geometric mean normalized with untreated cell (fold over background) [5, 6]: C (values from 2.0 to 4.9: range “C;”); pCD3zeta, percent of positive cells normalized with untreated cell (fold over background) [5, 6]: D (values from 0.1 to 1.9: range “D.”); pHS1, percent of positive cells normalized with untreated cell (fold over background) [5, 6]: C (values from 2.0 to 4.9: range “C;”); pLYN, percent of positive cells normalized with untreated cell (fold over background) [5, 6]: D (values from 0.1 to 1.9: range “D.”); pPLCg1, percent of positive cells normalized with untreated cell (fold over background) [5, 6]: C (values from 2.0 to 4.9: range “C;”); pPLCg2, percent of positive cells normalized with untreated cell (fold over background) [5, 6]: D (values from 0.1 to 1.9: range “D.”); pZAP70, percent of positive cells normalized with untreated cell (fold over background) [5, 6]: C (values from 2.0 to 4.9: range “C;”); Notch 1, geometric mean normalized with untreated cell (fold over background) ([5]; −CD3): D (values from 0.1 to 1.9: range “D.”); pCD3zeta, percent of positive cells normalized with untreated cell (fold over background) ([5]; −CD3): C (values from 2.0 to 4.9: range “C;”); pHS1, percent of positive cells normalized with untreated cell (fold over background) ([5]; −CD3): A (fold over background values from 10 to 14.9: range “A;”); pLYN, percent of positive cells normalized with untreated cell (fold over background) ([5]; −CD3): C (values from 2.0 to 4.9: range “C;”); pPLCg1, percent of positive cells normalized with untreated cell (fold over background) ([5]; −CD3): B (values from 5.0 to 9.9: range “B;”); pPLCg2, percent of positive cells normalized with untreated cell (fold over background) ([5]; −CD3): A (fold over background values from 10 to 14.9: range “A;”); pZAP70, percent of positive cells normalized with untreated cell (fold over background) ([5]; −CD3): C (values from 2.0 to 4.9: range “C;”)
Cn1cnnc1CC1(c2cccc(NC(=O)c3cc(CN4CC[C@H](OCCCCCCNC(=O)CCN5C(=O)C=CC5=O)C4)cc(C4CC4)n3)c2)COC1 [Compound 200]	5.01 to 20	C (values between 0.10 and 0.30: range “C”)	C (values between 0.10 and 0.30: range “C”)	C (values between 0.10 and 0.30: range “C”)	C (values between 0.10 and 0.30: range “C”)	C (values between 0.10 and 0.30: range “C”)	C (values between 0.10 and 0.30: range “C”)		C (values between 0.30 and 0.60: range “C”)	C (values between 0.30 and 0.60: range “C”)	
C[C@H]1CCCN(Cc2cc3c(c(C(F)(F)F)c2)CN(c2cc(C4(Cc5nncn5C)COC4)cc(OCCOCCOCCOCCNC(=O)CCN4C(=O)C=CC4=O)n2)C3=O)C1 [Compound 201, 3-(2,5-dioxopyrrol-1-yl)-N-{2-[2-(2-{2-[(4-{3-[(4-methyl-1,2,4-triazol-3-yl)methyl]oxetan-3-yl}-6-(6-{[(3S)-3-methylpiperidin-1-yl]methyl}-1-oxo-4-(trifluoromethyl)-3H-isoindol-2-yl)pyridin-2-yl)oxy]ethoxy}ethoxy)ethoxy]ethyl}propanamide]	1 to 5	C (values between 0.10 and 0.30: range “C”)	C (values between 0.10 and 0.30: range “C”)	C (values between 0.10 and 0.30: range “C”)	C (values between 0.10 and 0.30: range “C”)	C (values between 0.10 and 0.30: range “C”)	C (values between 0.10 and 0.30: range “C”)		C (values between 0.30 and 0.60: range “C”)	C (values between 0.30 and 0.60: range “C”)	
